Experimental data: patent US11299493B2, “Heterocyclic compounds and uses thereof” (NUVATION BIO INC., priority 2017, dated 2022)
Where two headings read alike, the source gives them in different places.

How the values were obtained:
WEE1 kinase enzyme = WEE1 kinase enzyme (Homo sapiens (Human), UniProt P30291); assay: WEE1 IC50 determination, LanthaScreen Terbium Labeled TR-FRET kinase assay; type: biochemical; settings: WEE1 enzyme 1 nM, ATP 10 μM, 1 h
Procedure: IC50 values of compounds against WEE1 kinase enzyme were determined by LanthaScreen™ Terbium Labeled TR-FRET assay. […] After 1 h, […] stop solution containing Terbium labeled antibody (4 nM) (#PV3529, Invitrogen, Life Technologies Grand Island, N.Y.) and EDTA (#E5134, Sigma, St-Louis, Mo.) (20 mM) in TR-FRET dilution buffer (#PV3574, Invitrogen, Life Technologies Grand Island, N.Y.) was added. Readings were taken in a Synergy Neo Plate reader (BioTek, Winooski) at single excitation of 340 nm and Dual emission at 495 nm and 520 nm respectively.
The % activity of test samples was calculated as (Sample−Min)*100/(Max−Min). [Max: DMSO control, complete reaction with enzyme & DMSO and Min: No enzyme & DMSO].

A427 cells = assay: Cytotoxicity assay (resazurin) in A427 cells; type: cell-based; settings: read-out: Cell Viability IC50 A427
Procedure: (§1) Cells were allowed to grow at 37° C. for 24 hr in 5% CO2 environment (culture conditions) in a Nuaire incubator (humidified). Serially diluted test compounds (100 μL) within the desired testing concentration ranges were added to the culture plate were further incubated in culture conditions for 72 hr and 96 hr for A427 and A549 respectively. The experiment was terminated at the designated incubation time by replacing the medium with 100 μL of 1 mM of resazurin (R7017; Sigma) prepared in respective culture medium, and the plates were further incubated in culture conditions for 4-6 hr. Fluorescence was recorded using a multimodal plate reader (Biotek Synergy Neo) at an excitation wavelength of 535 nm and emission wavelength of 590 nm to obtain relative fluorescence units. Data analysis was done by subtracting the background fluorescence (only medium blank) value from each reading and then normalizing with the vehicle control (DMSO treated cells) to obtain percent survival/proliferation. Percent survival was then subtracted by 100 to get the percent inhibition of proliferation which was used to calculate IC50 values.

A549 cells = assay: Cytotoxicity assay (resazurin) in A549 cells; type: cell-based; settings: Homo sapiens, A549, 96 hr, read-out: Cell Viability IC50 A549
Procedure: as §1

As-Pc-1 cells = assay: Cytotoxicity assay (resazurin) in As-Pc-1 cells; type: cell-based; settings: Homo sapiens, ASPC1; As-Pc-1, resazurin; read-out: Cell Viability IC50 As-Pc-1
Procedure: [The source words this procedure for another cell line and reports this cell line under the same test.] as §1, with “A549 (CCL-185; ATCC) and A427 (HTB-53; ATCC), both lung epithelial cell lines were seeded in their respective medium (DMEM/MEM, 10569044/41090101; Gibco) at a cell count of 1500 cells per 100 μL per well in a 96 well edge plate (167425; ThermoFisher). Cells” for “Cells”, “values. Potency of compounds in other cell lines (As-Pc-1, Panc 10.05, A172) was determined in an analogous manner.” for “values.”

Panc 10.05 cells = assay: Cytotoxicity assay (resazurin) in Panc 10.05 cells; type: cell-based; settings: Homo sapiens, Panc1005; Panc 10.05, resazurin; read-out: Cell Viability IC50 Panc 10.05
Procedure: [The source words this procedure for another cell line and reports this cell line under the same test.] as §1, with “A549 (CCL-185; ATCC) and A427 (HTB-53; ATCC), both lung epithelial cell lines were seeded in their respective medium (DMEM/MEM, 10569044/41090101; Gibco) at a cell count of 1500 cells per 100 μL per well in a 96 well edge plate (167425; ThermoFisher). Cells” for “Cells”, “values. Potency of compounds in other cell lines (As-Pc-1, Panc 10.05, A172) was determined in an analogous manner.” for “values.”

A172 cells = assay: Cytotoxicity assay (resazurin) in A172 cells; type: cell-based; settings: Homo sapiens, A 172, read-out: Cell Viability IC50 A172
Procedure: [The source words this procedure for another cell line and reports this cell line under the same test.] as §1, with “A549 (CCL-185; ATCC) and A427 (HTB-53; ATCC), both lung epithelial cell lines were seeded in their respective medium (DMEM/MEM, 10569044/41090101; Gibco) at a cell count of 1500 cells per 100 μL per well in a 96 well edge plate (167425; ThermoFisher). Cells” for “Cells”, “values. Potency of compounds in other cell lines (As-Pc-1, Panc 10.05, A172) was determined in an analogous manner.” for “values.”

[1] = Homo sapiens, A-427, 72 h, A427, 72 hr

Sequence of WEE1 kinase enzyme (P30291 whole entry): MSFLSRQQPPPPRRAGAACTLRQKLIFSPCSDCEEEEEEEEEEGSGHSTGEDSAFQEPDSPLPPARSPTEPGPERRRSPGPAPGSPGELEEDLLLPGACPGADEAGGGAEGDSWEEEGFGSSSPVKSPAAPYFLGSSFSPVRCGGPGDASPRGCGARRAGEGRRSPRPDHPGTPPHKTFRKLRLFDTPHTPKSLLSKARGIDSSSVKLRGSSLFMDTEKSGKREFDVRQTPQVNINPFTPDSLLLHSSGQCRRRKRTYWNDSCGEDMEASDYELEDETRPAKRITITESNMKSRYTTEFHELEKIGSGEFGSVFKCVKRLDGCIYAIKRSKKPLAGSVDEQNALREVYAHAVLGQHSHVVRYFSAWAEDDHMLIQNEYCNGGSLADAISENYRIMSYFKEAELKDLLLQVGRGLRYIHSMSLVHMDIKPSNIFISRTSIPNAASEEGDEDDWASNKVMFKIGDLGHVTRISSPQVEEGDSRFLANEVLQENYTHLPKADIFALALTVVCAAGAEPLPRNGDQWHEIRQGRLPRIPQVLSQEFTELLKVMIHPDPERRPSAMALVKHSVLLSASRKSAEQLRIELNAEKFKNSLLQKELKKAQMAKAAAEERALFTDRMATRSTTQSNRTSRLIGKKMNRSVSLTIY

| IC50 (WEE1 kinase enzyme) | Structure (SMILES) | IC50 (A427 cells; [1]) | other results |
| --- | --- | --- | --- |
| 0.002 µM | CC(C)n1c(=O)c2cnc(Nc3ccc4c(c3)CNCC4)nc2n1-c1ccnc(C(C)(C)C)n1 [Example 2.184] | 0.09 µM | IC50 (A549 cells): 0.655 µM; IC50 (As-Pc-1 cells): 0.085 µM; IC50 (Panc 10.05 cells): 0.545 µM; IC50 (A172 cells): 0.985 µM |
| 0.004 µM | CC(C)n1c(=O)c2cnc(Nc3ccc4c(c3)CCNC4)nc2n1-c1ccnc(C(C)(C)C)n1 [Example 2.183] | 0.135 µM | IC50 (A549 cells): 1.8 µM; IC50 (As-Pc-1 cells): 0.095 µM; IC50 (Panc 10.05 cells): 0.805 µM; IC50 (A172 cells): 1.64 µM |
| 0.001 µM | C=CCn1c(=O)c2cnc(Nc3ccc4c(c3)CCNC4)nc2n1-c1cccc(C(C)(C)O)n1 [Example 1.8] | – | IC50 (A549 cells): 0.545 µM |
| 0.0015 µM | CCn1c(=O)c2cnc(Nc3ccc4c(c3)CNCC4(C)C)nc2n1-c1cccc(C(C)(C)O)n1 [Example 1.13] | 1 µM | IC50 (A549 cells): 0.895 µM |
| 0.001 µM | C=CCn1c(=O)c2cnc(Nc3ccc4c(c3)CN(C)CC4)nc2n1-c1cccc(C(C)(C)O)n1 [Example 1.9] | – | IC50 (A549 cells): 0.52 µM |
| 0.0015 µM | CCCn1c(=O)c2cnc(Nc3ccc4c(c3)CNCC4)nc2n1-c1cccc(C(C)(C)O)n1 [Example 1.15] | 0.56 µM | IC50 (A549 cells): 1.2 µM |
| 0.0095 µM | CC(C)(O)c1cccc(-n2c3nc(Nc4ccc5c(c4)CNCC5)ncc3c(=O)n2C2CC2)n1 [Example 1.17] | 2.32 µM | IC50 (A549 cells): 9.06 µM |
| 0.001 µM | CCn1c(=O)c2cnc(Nc3ccc4c(c3)CN(C(=O)CO)CC4(C)C)nc2n1-c1cccc(C(C)(C)O)n1 [Example 1.14] | – | IC50 (A549 cells): 1.62 µM |
| 0.002 µM | CC(C)n1c(=O)c2cnc(Nc3ccc4c(c3)CNCC4)nc2n1-c1cccc(C(C)(C)O)n1 [Example 1.10] | 0.34 µM | IC50 (A549 cells): 0.51 µM |
| 0.002 µM | CC(C)(O)c1cccc(-n2c3nc(Nc4ccc5c(c4)CNCC5)ncc3c(=O)n2CC2CC2)n1 [Example 1.11] | 0.43 µM | IC50 (A549 cells): 1.18 µM |
| 0.005 µM | CC(C)n1c(=O)c2cnc(Nc3ccc4c(c3)CCNC4)nc2n1-c1cccc(C(C)(C)F)n1 [Example 1.140] | 0.555 µM | IC50 (Panc 10.05 cells): 1.52 µM |
| 0.015 µM | CC(C)n1c(=O)c2cnc(Nc3ccc4c(c3)CNCC4(C)C)nc2n1-c1ccn(C2CC2)n1 [Example 2.646] | 4.37 µM | – |
| 0.005 µM | CCn1c(=O)c2cnc(Nc3ccc4c(c3)CNCC4)nc2n1-c1cccc(NC(C)=O)n1 [Example 1.47] | 3.02 µM | – |
| 0.012 µM | CC(C)n1c(=O)c2cnc(Nc3ccc4c(c3)CCNC4)nc2n1-c1ccnc(N(C)C)c1 [Example 1.172] | 1.35 µM | – |
| 0.043 µM | CC(C)n1c(=O)c2cnc(Nc3ccc4c(c3)CNCC4)nc2n1-c1ccn(C2CC2)n1 [Example 2.189] | 1.99 µM | – |
| 0.002 µM | CC(C)n1c(=O)c2cnc(Nc3ccc4c(c3)CNCC4)nc2n1-c1cccc(C(C)(C)C#N)n1 [Example 3.035] | 0.42 µM | – |
| < 0.001 µM | CC(C)(C)c1cccc(-n2c3nc(Nc4ccc5c(c4)CNCC5)ncc3c(=O)n2CC(F)(F)F)n1 [Example 1.152] | 1.02 µM | – |
| 0.008 µM | COCCn1c(=O)c2cnc(Nc3ccc4c(c3)CNCC4)nc2n1-c1cccc(C(C)(C)C)n1 [Example 1.154] | 2.37 µM | – |
| 0.024 µM | CCn1c(=O)c2cnc(Nc3cnc4c(c3)CNCC4)nc2n1-c1cccc(C(C)(C)C)n1 [Example 1.141] | 2.97 µM | – |
| 0.03 µM | CC(C)(C)c1cc(-n2c3nc(Nc4ccc5c(c4)CNCC5)ncc3c(=O)n2C2CC2)ccn1 [Example 1.160] | 3.98 µM | – |

| IC50 (WEE1 kinase enzyme) | Structure (SMILES) | IC50 (A427 cells; [1]) | other results |
| --- | --- | --- | --- |
| 0.024 µM | CC(C)n1c(=O)c2cnc(Nc3ccc4c(c3)CNCC4)nc2n1-c1ccc(F)c(C(C)(C)O)c1 [Example 2.186] | 0.905 µM | – |
| 0.004 µM | CC(C)n1c(=O)c2cnc(Nc3ccc4c(c3)CNCC4)nc2n1-c1cccc(C(C)(C)F)n1 [Example 1.139] | 0.355 µM | – |
| 0.015 µM | CC(C)n1c(=O)c2cnc(Nc3ccc4c(c3)CCNC4)nc2n1-c1ccnc(C(C)(C)F)c1 [Example 1.163] | 0.72 µM | – |
| 0.016 µM | CC(C)n1c(=O)c2cnc(Nc3ccc4c(c3)CNCC4)nc2n1-c1ccnc(C(C)(C)F)c1 [Example 1.169] | 2.74 µM | – |
| 0.005 µM | CC(C)n1c(=O)c2cnc(Nc3ccc4c(c3)CCNC4)nc2n1-c1cccc(C(C)(C)C#N)n1 [Example 3.036] | 0.25 µM | – |
| 0.044 µM | CCn1c(=O)c2cnc(Nc3ccc4c(c3)CNCC4)nc2n1-c1cccc(C(F)(F)F)n1 [Example 1.41] | 5.12 µM | – |
| 0.03 µM | CC(C)(C)c1cc(-n2c3nc(Nc4ccc5c(c4)CCNC5)ncc3c(=O)n2C2CC2)ccn1 [Example 1.159] | 3.32 µM | – |
| 0.006 µM | CCn1c(=O)c2cnc(Nc3ccc4c(c3)CN(CC(=O)N(C)C)CC4)nc2n1-c1cccc(C(C)(C)O)n1 [Example 1.129] | 0.865 µM | – |
| 0.004 µM | CCn1c(=O)c2cnc(Nc3ccc4c(c3)CNC4)nc2n1-c1cccc(C(C)(C)C)n1 [Example 1.142] | 0.39 µM | – |
| < 0.001 µM | CCn1c(=O)c2cnc(Nc3ccc4c(c3)CNCC4)nc2n1-c1cccc(C(C)(C)C)n1 [Example 1.126] | 0.275 µM | – |
| 0.0006 µM | CCn1c(=O)c2cnc(Nc3ccc4c(c3)CCNC4)nc2n1-c1cccc(C(C)(C)C)n1 [Example 1.131] | 0.285 µM | – |
| 0.014 µM | CC(C)n1c(=O)c2cnc(Nc3ccc4c(c3)CNC4)nc2n1-c1ccnc(C(C)(C)C)c1 [Example 1.165] | 1.57 µM | – |
| 0.012 µM | CC(C)n1c(=O)c2cnc(Nc3ccc4c(c3)CCC(N(C)C)C4)nc2n1-c1ccnc(C(C)(C)C)c1 (stereo not drawn) [Example 1.170, 1-(2-tert-butylpyridin-4-yl)-6-{[6-(dimethylamino)-5,6,7,8-tetrahydronaphthalen-2-yl]amino}-2-(propan-2-yl)-1H,2H,3H-pyrazolo[3,4-d]pyrimidin-3-one] | 0.775 µM | – |
| 0.007 µM | CC(C)(C)c1cccc(-n2c3nc(Nc4ccc5c(c4)CCNC5)ncc3c(=O)n2C2CC2)n1 [Example 1.147] | – | IC50 (A427 cells; A427, 72 hr): 0.37 µM |
| 0.09 µM | CC(C)n1c(=O)c2cnc(Nc3ccc4c(c3)CCNC4)nc2n1-c1ccc(F)cn1 [Example 2.290] | 3.37 µM | – |
| > 3.65 µM | COC(C)(C)c1cc(-n2c3nc(Nc4ccc5c(c4)CCNC5)ncc3c(=O)n2C(C)C)ccn1 [Example 2.293] | > 30 µM | – |
| 0.01 µM | CCn1c(=O)c2cnc(Nc3ccc4c(c3)CNCC4)nc2n1-c1cccc(NC)n1 [Example 1.27] | 4.14 µM | – |
| 0.029 µM | CC(C)n1c(=O)c2cnc(Nc3ccc4c(c3)CCNC4)nc2n1-c1ccc(F)cc1 [Example 1.166] | 4.13 µM | – |
| 0.014 µM | CC(C)n1c(=O)c2cnc(Nc3ccc4c(c3)CCNC4)nc2n1-c1ccnc(C(C)(C)O)c1 [Example 1.178] | 6.2 µM | – |
| 0.217 µM | CC(C)n1c(=O)c2cnc(Nc3ccc4c(c3)CCNC4)nc2n1-c1cc(C(C)(C)C)ccn1 [Example 2.288] | 2.58 µM | – |

| Structure (SMILES) | IC50 (WEE1 kinase enzyme) | IC50 (A427 cells; [1]) | other results |
| --- | --- | --- | --- |
| CCn1c(=O)c2cnc(Nc3ccc4c(c3)CNC4)nc2n1-c1cccc(C(C)(C)O)n1 [Example 1.132] | 0.004 µM | – | IC50 (A427 cells; Homo sapiens, A-427, A427, 72 hr): 1.68 µM |
